Drawing on ChEMBL document CHEMBL5532661, “Discovery of a Novel Glucagon-like Peptide-1 (GLP-1) Analogue from Bullfrog and Investigation of Its Potential for Designing GLP-1-Based Multiagonists” (J Med Chem, 2024), this text covers EC50 and Activity for four compounds.

Assay [1] deals with T1, Glucagon-like peptide 1 receptor (Homo sapiens, UniProt P43220). As to the kind of experiment: Agonist activity at human GLP-1 receptor expressed in HEK293 cells assessed as cAMP level measured after 60 mins by HTRF based assay. Format: functional, cell-based. (In general: Changes in cAMP serve as a functional read-out for many G protein-coupled receptors.)
T1 sequence (P43220 whole entry): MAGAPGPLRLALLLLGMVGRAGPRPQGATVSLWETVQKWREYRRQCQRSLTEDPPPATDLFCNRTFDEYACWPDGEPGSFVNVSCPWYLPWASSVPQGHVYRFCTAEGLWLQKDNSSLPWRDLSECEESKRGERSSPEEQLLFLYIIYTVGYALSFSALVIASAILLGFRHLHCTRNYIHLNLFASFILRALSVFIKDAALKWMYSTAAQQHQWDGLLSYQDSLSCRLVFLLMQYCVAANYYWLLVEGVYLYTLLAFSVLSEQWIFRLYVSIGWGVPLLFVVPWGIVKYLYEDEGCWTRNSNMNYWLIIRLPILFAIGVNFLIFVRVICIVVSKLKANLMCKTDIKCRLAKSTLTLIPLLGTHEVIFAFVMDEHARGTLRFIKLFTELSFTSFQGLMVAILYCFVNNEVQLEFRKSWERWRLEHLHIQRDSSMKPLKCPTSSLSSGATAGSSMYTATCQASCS
Assay [2] deals with Mus musculus. As to the kind of experiment: Hypoglycemic effect in ICR mouse treated with 3 g/kg glucose assessed as reduction in blood glucose level at 30 nmol/kg, sc measured upto 120 mins pretreated with GLP-1R and GIPR antagonist by OGTT. Format: functional, organism-based.
The test system of assay [3] is Mus musculus. As to the kind of experiment: Reduction in feed intake in DIO mouse at 30 nmol/kg, sc treated twice a day measured after 21 days. The assay is classed as functional, organism-based. To be noted: time 21.0 day.
For assay [4], the system named is Mus musculus. In words: Hypoglycemic effect in ICR mouse treated with 3 g/kg glucose assessed as reduction in blood glucose level at 100 nmol/kg, sc measured upto 120 mins by acute glucose lowering test. Format: functional, organism-based.
Assay [5] addresses T2, Glucagon receptor (Homo sapiens, UniProt P47871). As to the kind of experiment: Agonist activity at human GCGR expressed in HEK293 cells assessed as cAMP level measured after 60 mins by HTRF based assay. Format: functional, cell-based.
In assay [6] the test system is Mus musculus. In words: Anorexigenic effect in ICR mouse assessed as decrease in food intake at 30 nmol/kg, sc measured upto 72 hrs by acute food intake study. The assay is classed as functional, organism-based.
Assay [7] deals with Mus musculus. In words: Reduction in serum AST in DIO mouse at 30 nmol/kg, sc treated every 2 and half day once measured after 21 days. The assay is classed as functional, organism-based. To be noted: time 21.0 day.
For assay [8], the target named is T3, Gastric inhibitory polypeptide receptor (Homo sapiens, UniProt P48546).
T3 sequence (P48546 whole entry): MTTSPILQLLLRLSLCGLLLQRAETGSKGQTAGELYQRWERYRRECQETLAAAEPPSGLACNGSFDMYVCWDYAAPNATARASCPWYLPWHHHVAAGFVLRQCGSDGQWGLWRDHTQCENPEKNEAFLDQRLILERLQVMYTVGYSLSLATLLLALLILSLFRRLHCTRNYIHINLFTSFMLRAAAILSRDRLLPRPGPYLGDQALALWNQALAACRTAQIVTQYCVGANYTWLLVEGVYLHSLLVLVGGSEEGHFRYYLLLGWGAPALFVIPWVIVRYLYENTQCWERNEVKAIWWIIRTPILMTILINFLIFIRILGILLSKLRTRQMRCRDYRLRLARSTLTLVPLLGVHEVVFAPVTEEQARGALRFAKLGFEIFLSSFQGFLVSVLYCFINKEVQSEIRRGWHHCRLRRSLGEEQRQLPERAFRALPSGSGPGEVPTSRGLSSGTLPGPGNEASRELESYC
As to the kind of experiment: Agonist activity at human GIPR receptor expressed in HEK293 cells assessed as cAMP level measured after 60 mins by HTRF based assay. The assay is classed as functional, cell-based.

In assay [9] the test system is Mus musculus. As to the kind of experiment: Antihyperglycemic effect in DIO mouse assessed as antihyperglycemic duration by measuring blood glucose at 30 nmol/kg, sc administered twice daily measured by hypoglycemic duration assay. Format: functional, organism-based.
Assay [10] deals with Mus musculus. As to the kind of experiment: Anorexigenic effect in ICR mouse assessed as decrease in food intake at 30 nmol/kg, sc measured at 48 hrs by acute food intake study. The assay is classed as functional, organism-based.
The test system of assay [11] is Mus musculus. In words: Reduction in body weight in DIO mouse at 30 nmol/kg, sc treated every 2 and half day once measured after 21 days. Format: functional. More on the design: scale not given: the % may be the effect or the level left.
Assay [12] concerns Mus musculus. As to the kind of experiment: Reduction in serum ALT in DIO mouse at 30 nmol/kg, sc treated every 2 and half day once measured after 21 days. Format: functional, organism-based. The note with it: time 21.0 day.
Assay [13] deals with T1, Glucagon-like peptide 1 receptor. As to the kind of experiment: Agonist activity at human GLP-1 receptor expressed in HEK293 cells assessed as cAMP level by measuring relative percent (GLP-1 EC50/compound EC50) measured after 60 mins by HTRF based assay relative to GLP-1. Format: functional, cell-based. To be noted: filed as agonist.
Assay [14] has as its target T4, Gastric inhibitory polypeptide receptor (Homo sapiens) (UniProt P48546).
T4 sequence (whole entry): T3 sequence (P48546 whole entry)
As to the kind of experiment: Agonist activity at human GIPR receptor expressed in HEK293 cells assessed as cAMP level by measuring relative percent (GIP EC50/compound EC50) measured after 60 mins by HTRF based assay relative to GIP. The assay is classed as functional, cell-based.

For assay [15], the target named is T2, Glucagon receptor. As to the kind of experiment: Agonist activity at human GCGR expressed in HEK293 cells assessed as cAMP level by measuring relative percent (glucagon EC50/compound EC50) measured after 60 mins by HTRF based assay relative to glucagon. Format: functional, cell-based.
The test system of assay [16] is Mus musculus. In words: Hypoglycemic effect in ICR mouse treated with 3 g/kg glucose assessed as reduction in blood glucose level at 30 nmol/kg, sc measured upto 120 mins pretreated with GLP-1R antagonist by OGTT. Format: functional, organism-based.
The subject of assay [17] is Mus musculus. In words: Antihyperglycemic effect in non-fasted DIO mouse assessed as decrease in blood glucose at 30 nmol/kg, sc measured upto 48 hrs. Format: functional, organism-based.

The source made the active and inactive calls. The calls are words filed in the database; no cut-off is given here. Numbered stars: 1 amine (or outer) side, 2 acyl side, 3 side chain; on linkers, the order of the positions; unused ones are H or OH. Square brackets hold non-standard residues; d marks the D form. Side chains are listed from the residue outwards. Peptide text beside a SMILES is read from it. * marks the point of attachment. C18 diacid = O=C(O)CCCCCCCCCCCCCCCCC(=O)*; γGlu = O=C(O)[C@H](CCC(=O)[*:2])N[*:1]; Palmitoyl = CCCCCCCCCCCCCCCC(=O)*; AEEA = NCCOCCOCC(=O)O; Aib = CC(C)(N)C(=O)O

T2 sequence (P47871 whole entry): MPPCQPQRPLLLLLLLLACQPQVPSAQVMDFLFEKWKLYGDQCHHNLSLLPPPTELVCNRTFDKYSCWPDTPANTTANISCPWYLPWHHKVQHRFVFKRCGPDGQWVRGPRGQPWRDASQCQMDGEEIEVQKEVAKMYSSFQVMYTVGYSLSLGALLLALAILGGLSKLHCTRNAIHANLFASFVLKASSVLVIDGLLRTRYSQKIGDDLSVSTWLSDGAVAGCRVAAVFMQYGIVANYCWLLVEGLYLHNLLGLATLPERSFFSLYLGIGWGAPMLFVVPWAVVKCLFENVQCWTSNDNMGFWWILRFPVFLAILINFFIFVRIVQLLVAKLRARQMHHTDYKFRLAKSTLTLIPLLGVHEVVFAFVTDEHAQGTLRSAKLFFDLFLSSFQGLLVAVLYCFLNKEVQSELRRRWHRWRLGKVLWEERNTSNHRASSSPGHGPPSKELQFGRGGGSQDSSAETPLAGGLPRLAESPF

Turning to `CC[C@H](C)[C@H](NC(=O)[C@H](Cc1ccccc1)NC(=O)[C@H](C)NC(=O)C(C)(C)NC(=O)[C@H](CCC(N)=O)NC(=O)[C@H](C)NC(=O)[C@H](CCCCNC(=O)COCCOCCNC(=O)CC[C@H](NC(=O)CCCCCCCCCCCCCCCCCCC(=O)O)C(=O)O)NC(=O)[C@H](CCCCN)NC(=O)[C@H](CC(=O)O)NC(=O)[C@H](CC(C)C)NC(=O)[C@](C)(CC(C)C)NC(=O)[C@@H](NC(=O)[C@H](CO)NC(=O)[C@H](Cc1ccc(O)cc1)NC(=O)[C@H](CC(=O)O)NC(=O)[C@H](CO)NC(=O)[C@@H](NC(=O)[C@H](Cc1ccccc1)NC(=O)[C@@H](NC(=O)CNC(=O)[C@H](CCC(N)=O)NC(=O)C(C)(C)NC(=O)[C@@H](N)Cc1ccc(O)cc1)[C@@H](C)O)[C@@H](C)O)[C@@H](C)CC)C(=O)N[C@@H](CCC(=O)O)C(=O)N[C@@H](Cc1ccc(O)cc1)C(=O)N[C@@H](CC(C)C)C(=O)N[C@@H](CC(C)C)C(=O)N[C@@H](CCC(=O)O)C(=O)NCC(=O)NCC(=O)N1CCC[C@H]1C(=O)N[C@@H](CO)C(=O)N[C@@H](CO)C(=O)NCC(=O)N[C@@H](C)C(=O)N1CCC[C@H]1C(=O)N1CCC[C@H]1C(=O)N1CCC[C@H]1C(=O)N[C@@H](CO)C(N)=O`, the EC50 in [1] was found to be 0.041 nM; on Glucagon receptor [5], 0.23 nM; in assay [8], 0.022 nM. Also, the result in the assay on Mus musculus [2] was inactive. Further, the result with Mus musculus [3], with Mus musculus [4], in the assay with Mus musculus [6], in the assay on Mus musculus [7], with Mus musculus [9] and in the assay on Mus musculus [10] was Active. Moreover, in the assay on Mus musculus [12], the outcome was Active. This compound yielded an Activity in the assay on Mus musculus [11] (time 21 day) of 38.5%.
For the compound `CC[C@H](C)[C@H](NC(=O)[C@H](CCCCNC(=O)COCCOCCNC(=O)COCCOCCNC(=O)CC[C@H](NC(=O)CCCCCCCCCCCCCCCCC(=O)O)C(=O)O)NC(=O)[C@H](CCC(=O)O)NC(=O)[C@H](CC(C)C)NC(=O)[C@H](C)NC(=O)[C@H](CCCNC(=N)N)NC(=O)[C@H](CO)NC(=O)[C@H](CC(C)C)NC(=O)[C@H](CC(=O)O)NC(=O)[C@H](CO)NC(=O)[C@@H](NC(=O)[C@H](Cc1ccccc1)NC(=O)[C@@H](NC(=O)CNC(=O)[C@H](CCC(N)=O)NC(=O)C(C)(C)NC(=O)[C@@H](N)Cc1c[nH]cn1)[C@@H](C)O)[C@@H](C)O)C(=O)N[C@@H](C)C(=O)N[C@@H](C)C(=O)N[C@@H](CCCNC(=N)N)C(=O)N[C@@H](CC(C)C)C(=O)N[C@@H](Cc1ccccc1)C(=O)N[C@H](C(=O)N[C@@H](CCC(=O)O)C(=O)N[C@@H](Cc1c[nH]c2ccccc12)C(=O)N[C@@H](CC(C)C)C(=O)N[C@H](C(=O)N[C@@H](CCC(=O)O)C(=O)NCC(=O)NCC(=O)N1CCC[C@H]1C(=O)N[C@@H](CO)C(=O)N[C@@H](CO)C(=O)NCC(=O)N[C@@H](C)C(=O)N1CCC[C@H]1C(=O)N1CCC[C@H]1C(=O)N1CCC[C@H]1C(=O)N[C@@H](CO)C(N)=O)[C@@H](C)CC)[C@@H](C)CC` (H-H[Aib]QGTFTSDLSRALEK([AEEA-AEEA-γGlu-C18 diacid])IAARLFIEWLIEGGPSSGAPPPS-NH2), the EC50 is 0.022 nM in assay [1], 1.8 nM at Glucagon receptor [5] and 0.97 nM in [8]. Also, the values for the Activity (in assay [13]; in assay [14]; at Glucagon receptor [15]) were 241%, 3% and 5%, respectively.
For SEMAGLUTIDE, the outcome in the assay with Mus musculus [4], in the assay with Mus musculus [6], in the assay with Mus musculus [7], in the assay with Mus musculus [9] and in the assay with Mus musculus [12] was Active. The result in the assay with Mus musculus [16] was inactive. In the assay with Mus musculus [11] (time 21.0 day), the Activity was found to be 18.6%.
As for `CCCCCCCCCCCCCCCC(=O)N[C@@H](CCC(=O)NCCCC[C@H](NC(=O)[C@H](C)NC(=O)[C@H](C)NC(=O)[C@H](CCC(=O)O)NC(=O)[C@H](CCC(=O)O)NC(=O)[C@H](CCC(=O)O)NC(=O)[C@H](CC(C)C)NC(=O)[C@H](Cc1ccc(O)cc1)NC(=O)[C@H](CO)NC(=O)[C@H](CO)NC(=O)[C@H](CCSC)NC(=O)[C@H](CC(=O)O)NC(=O)[C@H](CO)NC(=O)[C@@H](NC(=O)[C@H](Cc1ccccc1)NC(=O)[C@@H](NC(=O)CNC(=O)[C@H](CC(=O)O)NC(=O)C(C)(C)NC(=O)[C@@H](N)Cc1c[nH]cn1)[C@@H](C)O)[C@@H](C)O)C(=O)N[C@@H](CCC(=O)O)C(=O)N[C@@H](Cc1ccccc1)C(=O)N[C@H](C(=O)N[C@@H](CC(=O)O)C(=O)N[C@@H](Cc1c[nH]c2ccccc12)C(=O)N[C@@H](CC(C)C)C(=O)N[C@H](C(=O)N[C@@H](CCCCN)C(=O)NCC(=O)N[C@@H](CCCNC(=N)N)C(=O)N1CCC[C@H]1C(=O)N[C@@H](C)C(N)=O)[C@@H](C)CC)C(C)C)C(=O)O` (H-H[Aib]DGTFTSDMSSYLEEEAAK([γGlu-Palmitoyl])EFVDWLIKGRPA-NH2), in assay [1], the EC50 was found to be 0.021 nM. In addition, the result in the assay on Mus musculus [17] was inactive.

Usually EC50 stands for the concentration needed to bring the measured effect to its halfway point.
